Assay results reported in article PMC6934184, “Selective DNA-PKcs inhibition extends the therapeutic index of localized radiotherapy and chemotherapy” (The Journal of Clinical Investigation, 2019).

Target: T1, CASK (Homo sapiens, UniProt O14936)
T1 construct: purchased Thermo Fisher Scientific (Life Technologies) SelectScreen
Assay: SelectScreen LanthaScreen
Format: binding
Conditions: read-out: % displacement
In short: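 NU5455 was profiled across the SelectScreen Broad panel of kinase activity and binding assays. Z'LYTE reactions such as CSF1R ran at apparent Km ATP, while the Adapta CAMK1 assay used ATP listed as 10. Values are given as percent.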

T1 sequence (O14936 whole entry): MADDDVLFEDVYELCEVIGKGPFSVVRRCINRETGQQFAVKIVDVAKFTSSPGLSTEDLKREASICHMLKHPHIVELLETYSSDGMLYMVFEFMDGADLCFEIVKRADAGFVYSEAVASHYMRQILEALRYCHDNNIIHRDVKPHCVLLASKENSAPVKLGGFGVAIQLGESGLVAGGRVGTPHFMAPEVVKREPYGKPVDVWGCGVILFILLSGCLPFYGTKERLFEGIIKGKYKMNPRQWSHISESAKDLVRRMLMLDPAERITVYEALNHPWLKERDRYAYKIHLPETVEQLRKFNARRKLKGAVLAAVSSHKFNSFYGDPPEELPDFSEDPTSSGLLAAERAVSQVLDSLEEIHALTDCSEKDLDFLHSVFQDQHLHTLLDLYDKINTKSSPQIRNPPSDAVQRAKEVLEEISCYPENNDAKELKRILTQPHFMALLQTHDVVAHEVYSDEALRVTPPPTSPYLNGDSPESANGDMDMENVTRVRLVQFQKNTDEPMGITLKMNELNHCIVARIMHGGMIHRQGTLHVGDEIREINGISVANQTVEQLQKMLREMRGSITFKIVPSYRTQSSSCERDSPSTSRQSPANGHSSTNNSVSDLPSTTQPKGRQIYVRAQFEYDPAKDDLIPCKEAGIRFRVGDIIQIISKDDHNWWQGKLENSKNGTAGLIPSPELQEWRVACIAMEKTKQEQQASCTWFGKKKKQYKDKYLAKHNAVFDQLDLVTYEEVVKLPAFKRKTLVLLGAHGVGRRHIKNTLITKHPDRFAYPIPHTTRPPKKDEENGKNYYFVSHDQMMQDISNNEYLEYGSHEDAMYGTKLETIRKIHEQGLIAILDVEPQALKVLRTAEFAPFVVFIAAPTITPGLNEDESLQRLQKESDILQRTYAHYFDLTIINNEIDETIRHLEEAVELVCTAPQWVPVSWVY

CN(C(=O)CN1CCOCC1)c1ccc2sc3c(-c4cccc5c(=O)cc(N6CC7CCC(C6)O7)oc45)cccc3c2c1 [NU5455]
inhibition at 1 µM: -3.1%
